In patent EP0863702B1, “FUNGICIDAL MIXTURE” (BASF AKTIENGESELLSCHAFT, priority 1995, dated 1997):

Legend:
Botrytis cinerea [1] = experiment: Efficacy against Botrytis cinerea on paprika seedlings (protective spray); assay type: in vivo; conditions: single active, Paprikasämlinge, 5 Tage, 22 bis 24°C
Protocol: Paprikasämlinge der Sorte "Neusiedler Ideal Elite" wurden, nachdem sich 4 bis 5 Blätter gut entwickelt hatten, mit wäßrigen Suspensionen, die 80 % Wirkstoff und 20 % Emulgiermittel in der Trockensubstanz enthielten, tropfnaß gespritzt. Nach dem Antrocknen des Spritzbelages wurden die Pflanzen mit einer Konidienaufschwemmung des Pilzes Botrytis cinerea besprüht und bei 22 bis 24°C in eine Kammer mit hoher Luftfeuchtigkeit gestellt. Nach 5 Tagen hatte sich die Krankheit auf den unbehandelten Kontrollpflanzen so stark entwickelt, daß die entstandenen Blattnekrosen den überwiegenden Teil der Blätter bedeckten.
(§1) Die visuell ermittelten Werte für den Prozentanteil befallener Blattfläche wurden in Wirkungsgrade als % der unbehandelten Kontrolle umgerechnet. Wirkungsgrad 0 ist gleicher Befall wie in der unbehandelten Kontrolle, Wirkungsgrad 100 ist 0 % Befall. Die zu erwartenden Wirkungsgrade für Wirkstoffkombinationen wurden nach der Colby-Formel ermittelt (S. R. Colby "Calculating synergistic and antagonistic responses of herbicide combinations", Weeds 15, Seiten 20 bis 22 (1967)) und mit den beobachteten Wirkungsgraden verglichen.

Botrytis cinerea [2] = experiment: Efficacy against Botrytis cinerea on slices of green paprika fruit; assay type: in vivo; conditions: single active, Paprikaschoten-Scheiben, 4 Tage, 18°C
Protocol: Scheiben von grünen Paprikaschoten wurden mit wäßriger Wirkstoffaufbereitung, die 80 % Wirkstoff und 20 % Emulgiermittel in der Trockensubstanz enthielt, tropfnaß besprüht. 2 Stunden nach dem Antrocknen des Spritzbelages wurden die Fruchtscheiben mit einer Sporensuspension von Botrytis cinerea, die 1,7 x 10^6 Sporen pro ml einer 2 %igen Biomalzlösung enthielt, inokuliert. Die inokulierten Fruchtscheiben wurden anschließend in feuchten Kammern bei 18°C für 4 Tage aufgestellt. Dann erfolgte visuell die Auswertung der Botrytis-Entwicklung auf den befallenen Fruchtscheiben.
as §1

With `CC(C)(CCl)C(=O)Nc1ccc(O)c(Cl)c1Cl` [(A)] the Wirkungsgrad (Botrytis cinerea [1]; 25 ppm in der Spritzbrühe) was 40 % der unbehandelten Kontrolle, the Wirkungsgrad (Botrytis cinerea [1]; 100 ppm in der Spritzbrühe) was 84 % der unbehandelten Kontrolle and the Wirkungsgrad (Botrytis cinerea [2]; 100 ppm in der Spritzbrühe) was 20 % der unbehandelten Kontrolle.
`CC1(C(=O)Nc2ccc(O)c(Cl)c2Cl)CC2CCC1C2` (centres unmarked) [(B)] was tested, and the Wirkungsgrad (Botrytis cinerea [1]; 25 ppm in der Spritzbrühe) was 65 % der unbehandelten Kontrolle, the Wirkungsgrad (Botrytis cinerea [1]; 100 ppm in der Spritzbrühe) was 80 % der unbehandelten Kontrolle and the Wirkungsgrad (Botrytis cinerea [2]; 25 ppm in der Spritzbrühe) was 10 % der unbehandelten Kontrolle. For the same compound, the Wirkungsgrad (Botrytis cinerea [2]; 100 ppm in der Spritzbrühe) was 25 % der unbehandelten Kontrolle.
For `CC1(C(=O)Nc2ccc(O)c(Cl)c2Cl)CCCCC1` [(C)], the Wirkungsgrad (Botrytis cinerea [1]; 25 ppm in der Spritzbrühe) was 35 % der unbehandelten Kontrolle, the Wirkungsgrad (Botrytis cinerea [1]; 100 ppm in der Spritzbrühe) was 70 % der unbehandelten Kontrolle and the Wirkungsgrad (Botrytis cinerea [2]; 25 ppm in der Spritzbrühe) was 30 % der unbehandelten Kontrolle. The Wirkungsgrad (Botrytis cinerea [2]; 100 ppm in der Spritzbrühe) was 25 % der unbehandelten Kontrolle.
